This note sets out measurements from patent US20240225971A1 (Genomatica, Inc., priority 2021, published 2024).

In brackets after ≈: the same amount, converted by molar mass. Where two headings read alike, the source gives them in different places. Where only a bound is given, the exact number is not on record here.

The solubility is the dissolved amount per volume that the medium holds. As usually defined, the logP is a log measure of how a compound divides between an organic and an aqueous phase.

Series [1] concerns microorganisms. In words: Minimum Inhibitory Concentration (MIC) testing. The settings on record: concentration completely inhibiting microbial growth. It counts as cell-based.
The nature of series [2]: Flash point of fragrance ingredients. It counts as physicochemical. The text has this: (§1) Also included is the molecular weight of each of the fragrance ingredients. Not determinable (ND).
Series [3] can be described thus: Clarity of fragrance ingredient in bioderived 1,3-BG by visual observation.
Method: Clarity for each of the fragrance ingredients (10% in bioderived 1,3-BG) was determined by visual observations after compounding and blending the fragrance ingredient with bioderived 1,3-BG and identified as clear, slightly haze, cloudy, particles, or separation.
Clarity for each of the fragrance ingredients (at 1% in bioderived 1,3-BG) was determined by visual observations after compounding and blending the fragrance ingredient with bioderived 1,3-BG and identified as clear, slightly haze, cloudy, particles, or separation.
Series [4] is described as follows: physchem. The settings on record: for Water Solubility: 25° C.
Excerpt: as §1

Series [5] can be described thus: physchem.
Excerpt: The term “fragrance composition” or “composition,” as used herein, represents a composition containing one or more fragrance ingredients described here and formulated with a physiologically acceptable diluent or solvent, used interchangeably here. In a fragrance composition, or composition that has a fragrance, such as a perfume, 20%-40% of the observable liquid may be comprised of a diluent, i.e., the delivery system for scents of the fragrance ingredients. The “log P” value, as used here, indicates whether a substance or fragrance ingredient will be absorbed by humans, animals, plants, or living tissue; diffused or disseminated by water.
as §1

The nature of series [6]: Vapor pressure of fragrance ingredients.
Excerpt: as §1

The mark [7] stands for this setting: 10% ingredient in bioderived 1,3-BG, clear, slightly haze, cloudy, particles, or separation.

Take `OCCCO` [1,3-PG, 1,3-Propylene Glycol]: the “MIC A. brasiliensis” value in series [1] (A. brasiliensis) was more than 350 mg/mL. For the same compound, the “MIC C. albicans” value in series [1] (C. albicans) worked out at 250 mg/mL (≈ 3290 mM). Besides, the “MIC E. coli” value in series [1] (E. coli) was 225 mg/mL (≈ 2960 mM). The “MIC P. aeruginosa” value in series [1] (P. aeruginosa) was determined as 200 mg/mL (≈ 2630 mM). In addition, in series [1] (S. aureus), the “MIC S. aureus” value came to 300 mg/mL (≈ 3940 mM).
As to `C=C(C)[C@@H]1CCC2=CC(=O)C[C@@H](C)[C@]2(C)C1` [Nootkatone], in series [2], the “Flash Point” value came to 110 °C. Moreover, the “Clarity 10%” value in series [3] (setting [7]) is given as “Clear”. The solubility in series [4] (25 °C, water) came to 2.38 µg/mL (≈ 0.0109 mM). In series [5], this compound displayed a logP of 3.77. Besides, the “Vapor Pressure” value in series [6] turned out to be 0.000358 mm hg.
For the compound `CCC(CC)C(=O)N(C)c1cccc(C)c1` [Paradisamide], in series [2], the “Flash Point” value came out at 138 °C. Besides, the “Clarity 10%” value in series [3] (setting [7]) is reported as “Clear”. The “Water Solubility” value in series [4] was determined as 46.430 µg/mL. For the same compound, the logP in series [5] is given as 3.295. Further, the “Vapor Pressure” value in series [6] was 0.0038 mm hg.
As for `CC(=O)OC(C)(C)C1CC=C(C)CC1` (centres unmarked) [Terpinyl Acetate], the “Flash Point” value in series [2] worked out at 100 °C. Further, in series [3], the “Clarity 1%” value was “Clear”. The “Water Solubility” value in series [4] was 18.970 µg/mL. The same compound came in with a logP in series [5] of 3.59. Also, the “Vapor Pressure” value in series [6] came out at 0.058 mm hg.
For the compound Caryophyllene, in series [2], the “Flash Point” value was 16 °C. Also, in series [3], the “Clarity 1%” value is listed as “Slightly Haze” and the “Clarity 10%” value is on record as “Cloudy”. For the same compound, in series [4], the “Water Solubility” value was found to be 0.050 µg/mL. The same compound gave a logP in series [5] of 6.3. Also, in series [6], the “Vapor Pressure” value was 0.013 mm hg.
